Laboratory results reported in patent publication US20230286968A1, “ARYLOXAZOLO SPIRAL RING DERIVATIVES FOR THE TREATMENT AND PROPHYLAXIS OF HEPATITIS B VIRUS INFECTION” (Hoffmann-La Roche Inc., priority 2020, published 2023).
Like-named read-outs stand apart in the source and are kept apart here.

Experiments:
HBeAg = assay: PHH natural infection assay, HBeAg (alphalisa); format: cell-based, HBV
Procedure: (§1) Detailed procedures regarding primary human hepatocyte (PHH) HBV natural infection assay are described as below. One tube of frozen PHH (10 million cells) is thawed in 37° C. water bath and then transferred to 20 mL of PHH thawing medium (Sigma, InVitroGRO HT Medium, Cat. S03319) with gently mixing. The cells were then centrifuged at […] for 5 min, the supernatant was discarded and the tube was refilled with 25 mL of PHH plating medium (Sigma, InVitroGRO CP Medium, Cat. S03317). The tube was shaken very gently to re-suspend all cells, and then 50 μL of cells were transferred to each well 384-well collagen I coated plate with appropriate liquid handling equipment, e.g. Integra VIAFLO384 or Agilent Bravo. The cells were then cultured for 24 hours in a cell incubator. For HBV infection, after PHH attachment on the culture plate, the plating medium was removed and replenished with PHH culture medium containing HBV virus. The PHH culture medium was prepared with Dulbecco's Modified Eagle Medium (DMEM)/F12 (1:1 in volume ratio) containing 10% fetal bovine serum (Gibco, Cat. 10099141), 5 ng/mL human epidermal growth factor (Gibco, Cat.PHG0311L), 20 ng/mL dexamethasone (Sigma, Cat.D4902-100 mg), 250 ng/mL human recombinant insulin (Gibco, Cat.41400045) and 100 U/mL penicillin. HBV virus at 200 genome equivalent (GE) per cell with 4% PEG8000 (Sigma, Cat.P1458) containing culture medium were added to the PHH culture medium for infection. The cells were then cultured for 24 hours in cell incubator. Then the cell culture supernatant was removed. The HBV-infected PHH were cultured with sandwich culture method with PHH culture medium containing […] and 0.25 mg/mL matrix gel for 72 hours. The supernatant was then refreshed with PHH culture medium containing different concentrations of testing compounds for two times with 72-hour interval. At the end of treatment, the supernatant was collected for viral markers measurements, including HBsAg, HBeAg, HBV DNA and cytotoxicity. HBsAg and HBeAg were detected using alphalisa method using their specific antibodies. For HBV DNA detection, HBV DNA Quantitative Fluorescence Diagnostic Kit (Sansure Biotech Inc.) was used following the manufacture's protocol. Cytotoxicity was determined using Cell Counting Kit-8 (CCK8, Dojindo Molecular Technologies, Inc.).
(§2) The compounds of the present invention were tested for their capacity to inhibit HBsAg and HBeAg as described herein.

[1] = Cytotoxicity in PHH natural infection assay (Cell Counting Kit-8); format: cell-based; details: HBV-infected primary human hepatocytes, CCK8
Procedure: as §1

HBsAg = assay: PHH natural infection assay, HBsAg (alphalisa); format: cell-based, HBV
Procedure: as §1, §2

[2] = read-out: HBeAg IC50, HBV-infected primary human hepatocytes, supernatant, alphalisa
[3] = read-out: HBsAg IC50, HBV-infected primary human hepatocytes, supernatant, alphalisa
[4] = Hepatitis B virus, Hepatocyte, read-out: HBeAg IC50, HBV-infected primary human hepatocytes, supernatant, alphalisa
[5] = Hepatitis B virus, Hepatocyte, read-out: HBsAg IC50, HBV-infected primary human hepatocytes, supernatant, alphalisa

Structure (SMILES) | IC50 (HBeAg; [2]) [µM] | CC50 at 144 h [1] [µM] | IC50 (HBsAg; [3]) [µM] | IC50 (HBeAg; [4]) [µM] | IC50 (HBsAg; [5]) [µM]
[H][C@]1(NC(=O)C2CCS(=O)(=O)CC2)C[C@]2(C1)C[C@]([H])(c1nc3cc(Cl)ccc3o1)C2 (single isomer, unassigned) [Example 82a, (Ra)—N-[6-(5-chloro-1,3-benzoxazol-2-yl)spiro[3.3]heptan-2-yl]-1,1-dioxo-thiane-4-carboxamide] | 5.13 | > 100 | 6.57 | – | –
[H][C@]1(NC(=O)C2CCS(=O)(=O)CC2)C[C@@]2(C1)C[C@]([H])(c1nc3cc(Cl)ccc3o1)C2 (single isomer, unassigned) [Example 82b, (Sa)—N-[6-(5-chloro-1,3-benzoxazol-2-yl)spiro[3.3]heptan-2-yl]-1,1-dioxo-thiane-4-carboxamide] | 1.47 | > 100 | 2.04 | – | –
[H][C@]1(NC(=O)c2ccnc(S(=O)(=O)C3CC3)c2)C[C@]2(C1)C[C@]([H])(c1nc3cc(Cl)ccc3o1)C2 (single isomer, unassigned) [Example 84a, (Ra)—N-[6-(5-chloro-1,3-benzoxazol-2-yl)spiro[3.3]heptan-2-yl]-2-cyclopropylsulfonyl-pyridine-4-carboxamide] | 0.13 | 84.3 | 0.07 | – | –
[H][C@]1(NC(=O)c2ccnc(S(=O)(=O)C3CC3)c2)C[C@@]2(C1)C[C@]([H])(c1nc3cc(Cl)ccc3o1)C2 (single isomer, unassigned) [Example 84b, (Sa)—N-[6-(5-chloro-1,3-benzoxazol-2-yl)spiro[3.3]heptan-2-yl]-2-cyclopropylsulfonyl-pyridine-4-carboxamide] | 1.61 | > 10 | 1.9 | – | –
[H][C@]1(NC(=O)c2ccnc(S(C)(=O)=O)c2)C[C@]2(C1)C[C@]([H])(c1nc3cc(Cl)ccc3o1)C2 (single isomer, unassigned) [Example 87-a, (Ra)—N-[6-(5-chloro-1,3-benzoxazol-2-yl)spiro[3.3]heptan-2-yl]-2-methylsulfonyl-pyridine-4-carboxamide] | 0.22 | > 10 | 0.2 | – | –
[H][C@]1(NC(=O)c2ccnc(S(C)(=O)=O)c2)C[C@@]2(C1)C[C@]([H])(c1nc3cc(Cl)ccc3o1)C2 (single isomer, unassigned) [Example 87-b, (Sa)—N-[6-(5-chloro-1,3-benzoxazol-2-yl)spiro[3.3]heptan-2-yl]-2-methylsulfonyl-pyridine-4-carboxamide] | 3.29 | > 10 | 3.68 | – | –
[H][C@@]1(C(=O)N[C@]2([H])C[C@@]3(C2)C[C@@]([H])(c2nc4cc(Cl)ccc4o2)C3)CC(=O)N(C)C1 (single isomer, unassigned) [Example 94c] | – | > 100 | – | 0.61 | 1.24
[H][C@]1(C(=O)N[C@]2([H])C[C@@]3(C2)C[C@@]([H])(c2nc4cc(Cl)ccc4o2)C3)CC(=O)N(C)C1 (single isomer, unassigned) [Example 94d] | – | > 100 | – | 1.46 | 2.57
O=C(NC1CC2(C1)CC(c1nc3cc(Cl)ccc3o1)C2)c1ccccn1 (stereo not drawn) [Example 1, N-[6-(5-chloro-1,3-benzoxazol-2-yl)spiro[3.3]heptan-2-yl]pyridine-2-carboxamide] | – | 74.8 | – | 7.89 | 9.75
O=C(NC1CC2(C1)CC(c1nc3cc(Cl)ccc3o1)C2)c1cccnc1 (stereo not drawn) [Example 2, N-[6-(5-chloro-1,3-benzoxazol-2-yl)spiro[3.3]heptan-2-yl]pyridine-3-carboxamide] | – | 68.3 | – | 5.25 | 6.2
O=C(NC1CC2(C1)CC(c1nc3cc(Cl)ccc3o1)C2)c1ccncc1 (stereo not drawn) [Example 3, N-[6-(5-chloro-1,3-benzoxazol-2-yl)spiro[3.3]heptan-2-yl]pyridine-4-carboxamide] | – | > 100 | – | 4.39 | 8.19
Cc1cc(C(=O)NC2CC3(C2)CC(c2nc4cc(Cl)ccc4o2)C3)ccn1 (stereo not drawn) [Example 4, N-[6-(5-chloro-1,3-benzoxazol-2-yl)spiro[3.3]heptan-2-yl]-2-methyl-pyridine-4-carboxamide] | – | > 10 | – | 4.59 | 5.51
O=C(NC1CC2(C1)CC(c1nc3cc(Cl)ccc3o1)C2)c1ccnc(NC2COC2)c1 (stereo not drawn) [Example 5, N-[6-(5-chloro-1,3-benzoxazol-2-yl)spiro[3.3]heptan-2-yl]-2-(oxetan-3-ylamino)pyridine-4-carboxamide] | – | > 10 | – | 5.42 | 7.19
CCN(CC)c1cc(C(=O)NC2CC3(C2)CC(c2nc4cc(Cl)ccc4o2)C3)ccn1 (stereo not drawn) [Example 6, N-[6-(5-chloro-1,3-benzoxazol-2-yl)spiro[3.3]heptan-2-yl]-2-(diethylamino)pyridine-4-carboxamide] | – | > 10 | – | 4.87 | 6.56
CCN(C)c1cc(C(=O)NC2CC3(C2)CC(c2nc4cc(Cl)ccc4o2)C3)ccn1 (stereo not drawn) [Example 7, N-[6-(5-chloro-1,3-benzoxazol-2-yl)spiro[3.3]heptan-2-yl]-2-[ethyl(methyl)amino]pyridine-4-carboxamide] | – | > 10 | – | 4.34 | 4.19
O=C(NC1CC2(C1)CC(c1nc3cc(Cl)ccc3o1)C2)c1ccnc(N2CCCCC2)c1 (stereo not drawn) [Example 8, N-[6-(5-chloro-1,3-benzoxazol-2-yl)spiro[3.3]heptan-2-yl]-2-(1-piperidyl)pyridine-4-carboxamide] | – | > 10 | – | 4.05 | 4.73
O=C(NC1CC2(C1)CC(c1nc3cc(Cl)ccc3o1)C2)c1ccnc(N2CCOCC2)c1 (stereo not drawn) [Example 9, N-[6-(5-chloro-1,3-benzoxazol-2-yl)spiro[3.3]heptan-2-yl]-2-morpholino-pyridine-4-carboxamide] | – | > 10 | – | 4.37 | 3.83
O=C(NC1CC2(C1)CC(c1nc3cc(Cl)ccc3o1)C2)c1ccnc(NC2CC2)c1 (stereo not drawn) [Example 10, N-[6-(5-chloro-1,3-benzoxazol-2-yl)spiro[3.3]heptan-2-yl]-2-(cyclopropylamino)pyridine-4-carboxamide] | – | > 10 | – | 3.92 | 3.77
CN(C)c1cc(C(=O)NC2CC3(C2)CC(c2nc4cc(Cl)ccc4o2)C3)ccn1 (stereo not drawn) [Example 11, N-[6-(5-chloro-1,3-benzoxazol-2-yl)spiro[3.3]heptan-2-yl]-2-(dimethylamino)pyridine-4-carboxamide] | – | > 100 | – | 2.67 | 2.85
CC(C)N(C)c1cc(C(=O)NC2CC3(C2)CC(c2nc4cc(Cl)ccc4o2)C3)ccn1 (stereo not drawn) [Example 12, N-[6-(5-chloro-1,3-benzoxazol-2-yl)spiro[3.3]heptan-2-yl]-2-[isopropyl(methyl)amino]pyridine-4-carboxamide] | – | > 10 | – | 1.55 | 2.03
O=C(NC1CC2(C1)CC(c1nc3cc(Cl)ccc3o1)C2)c1ccnc(N2CCCC2=O)c1 (stereo not drawn) [Example 13, N-[6-(5-chloro-1,3-benzoxazol-2-yl)spiro[3.3]heptan-2-yl]-2-(2-oxopyrrolidin-1-yl)pyridine-4-carboxamide] | – | > 10 | – | 3.94 | 3.75
Cc1csc(-c2cc(C(=O)NC3CC4(C3)CC(c3nc5cc(Cl)ccc5o3)C4)ccn2)n1 (stereo not drawn) [Example 14, N-[6-(5-chloro-1,3-benzoxazol-2-yl)spiro[3.3]heptan-2-yl]-2-(4-methylthiazol-2-yl)pyridine-4-carboxamide] | – | > 10 | – | 4.08 | 6.36
Cc1cnc(-c2cc(C(=O)NC3CC4(C3)CC(c3nc5cc(Cl)ccc5o3)C4)ccn2)s1 (stereo not drawn) [Example 15, N-[6-(5-chloro-1,3-benzoxazol-2-yl)spiro[3.3]heptan-2-yl]-2-(5-methylthiazol-2-yl)pyridine-4-carboxamide] | – | > 10 | – | 1.47 | 2.25
O=C(NC1CC2(C1)CC(c1nc3cc(Cl)ccc3o1)C2)c1ccnc(-c2nccs2)c1 (stereo not drawn) [Example 16, N-[6-(5-chloro-1,3-benzoxazol-2-yl)spiro[3.3]heptan-2-yl]-2-thiazol-2-yl-pyridine-4-carboxamide] | – | > 10 | – | 4.73 | 5.78
